Data published in US10670605B2, “Cysteine reactive probes and uses thereof” (The Scripps Research Institute, priority 2015, dated 2020).

Experiments:
Experiment in all cases: Competitive isoTOP-ABPP in situ (fragment-treated cells)
Type in all cases: cell-based
[1] = biological target: T1, cysteines in MDA-MB-231 and Ramos cells (Homo sapiens, UniProt Q6ICB0)
T1 sequence (Q6ICB0 1-168): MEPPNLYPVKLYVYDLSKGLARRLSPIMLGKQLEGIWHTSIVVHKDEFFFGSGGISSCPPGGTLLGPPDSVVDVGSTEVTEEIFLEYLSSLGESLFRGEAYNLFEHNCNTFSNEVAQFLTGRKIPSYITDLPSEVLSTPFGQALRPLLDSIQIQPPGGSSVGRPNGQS

[2] = biological target: cysteines in MDA-MB-231 and Ramos cells (Homo sapiens, UniProt O60825); conditions: 200 μM, insitu
[3] = biological target: T2, cysteines in MDA-MB-231 and Ramos cells (Homo sapiens, UniProt Q96P48); conditions: 200 μM, insitu
T2 sequence (Q96P48 1-1450): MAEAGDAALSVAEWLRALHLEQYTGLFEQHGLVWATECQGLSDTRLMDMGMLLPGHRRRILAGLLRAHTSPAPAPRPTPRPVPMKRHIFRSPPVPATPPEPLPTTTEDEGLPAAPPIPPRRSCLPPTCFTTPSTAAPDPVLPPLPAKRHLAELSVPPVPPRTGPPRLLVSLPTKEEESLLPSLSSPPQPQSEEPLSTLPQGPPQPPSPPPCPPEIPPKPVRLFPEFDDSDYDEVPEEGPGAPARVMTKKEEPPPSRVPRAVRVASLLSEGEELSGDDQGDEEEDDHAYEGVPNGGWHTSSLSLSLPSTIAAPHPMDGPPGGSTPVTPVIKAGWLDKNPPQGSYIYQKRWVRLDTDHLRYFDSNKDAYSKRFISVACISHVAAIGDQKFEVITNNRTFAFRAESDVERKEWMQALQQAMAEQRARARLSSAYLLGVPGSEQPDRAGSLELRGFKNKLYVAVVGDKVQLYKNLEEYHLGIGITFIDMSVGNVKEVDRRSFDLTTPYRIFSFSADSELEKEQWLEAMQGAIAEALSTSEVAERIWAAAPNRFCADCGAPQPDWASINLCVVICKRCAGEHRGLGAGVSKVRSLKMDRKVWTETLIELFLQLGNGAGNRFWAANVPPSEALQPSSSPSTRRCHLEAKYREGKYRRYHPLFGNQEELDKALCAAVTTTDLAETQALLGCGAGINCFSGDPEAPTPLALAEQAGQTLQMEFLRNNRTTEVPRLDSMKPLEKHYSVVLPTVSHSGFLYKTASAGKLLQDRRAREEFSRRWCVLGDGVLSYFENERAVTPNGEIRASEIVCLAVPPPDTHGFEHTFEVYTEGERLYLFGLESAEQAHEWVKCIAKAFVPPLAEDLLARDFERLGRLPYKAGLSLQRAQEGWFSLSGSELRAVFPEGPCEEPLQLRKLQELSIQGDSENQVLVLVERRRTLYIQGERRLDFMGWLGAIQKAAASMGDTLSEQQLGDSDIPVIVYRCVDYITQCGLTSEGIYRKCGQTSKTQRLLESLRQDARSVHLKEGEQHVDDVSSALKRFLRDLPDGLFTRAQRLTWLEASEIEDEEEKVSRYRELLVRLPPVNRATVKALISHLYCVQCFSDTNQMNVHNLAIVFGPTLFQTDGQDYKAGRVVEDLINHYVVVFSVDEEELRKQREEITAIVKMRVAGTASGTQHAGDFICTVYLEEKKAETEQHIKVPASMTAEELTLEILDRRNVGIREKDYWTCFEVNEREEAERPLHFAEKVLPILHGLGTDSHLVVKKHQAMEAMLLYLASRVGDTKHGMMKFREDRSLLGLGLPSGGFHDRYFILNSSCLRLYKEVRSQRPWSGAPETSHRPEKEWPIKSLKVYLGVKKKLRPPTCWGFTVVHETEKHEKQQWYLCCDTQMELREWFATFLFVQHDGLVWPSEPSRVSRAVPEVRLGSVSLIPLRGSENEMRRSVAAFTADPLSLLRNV

[4] = biological target: cysteines in MDA-MB-231 and Ramos cells (Homo sapiens, UniProt Q9BRJ7)
[5] = biological target: cysteines in MDA-MB-231 and Ramos cells (Homo sapiens, UniProt Q9Y6G9)
[6] = biological target: T3, cysteines in MDA-MB-231 and Ramos cells (Homo sapiens, UniProt P09110)
T3 sequence (P09110 27-424): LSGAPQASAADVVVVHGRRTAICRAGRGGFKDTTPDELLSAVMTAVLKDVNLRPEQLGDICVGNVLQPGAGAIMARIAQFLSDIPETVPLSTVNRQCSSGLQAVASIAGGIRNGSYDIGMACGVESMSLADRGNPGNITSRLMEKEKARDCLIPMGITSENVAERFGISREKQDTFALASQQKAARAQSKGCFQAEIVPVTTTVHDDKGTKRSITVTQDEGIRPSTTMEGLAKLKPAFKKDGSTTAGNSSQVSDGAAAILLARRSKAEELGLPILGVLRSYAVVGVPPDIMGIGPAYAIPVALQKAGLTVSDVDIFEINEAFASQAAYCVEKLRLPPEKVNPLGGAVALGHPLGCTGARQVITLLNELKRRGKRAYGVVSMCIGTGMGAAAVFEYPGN

[7] = biological target: cysteines in MDA-MB-231 and Ramos cells (Homo sapiens, UniProt P14635)
[8] = biological target: T4, cysteines in MDA-MB-231 and Ramos cells (Homo sapiens, UniProt Q86W42)
T4 sequence (Q86W42 1-341): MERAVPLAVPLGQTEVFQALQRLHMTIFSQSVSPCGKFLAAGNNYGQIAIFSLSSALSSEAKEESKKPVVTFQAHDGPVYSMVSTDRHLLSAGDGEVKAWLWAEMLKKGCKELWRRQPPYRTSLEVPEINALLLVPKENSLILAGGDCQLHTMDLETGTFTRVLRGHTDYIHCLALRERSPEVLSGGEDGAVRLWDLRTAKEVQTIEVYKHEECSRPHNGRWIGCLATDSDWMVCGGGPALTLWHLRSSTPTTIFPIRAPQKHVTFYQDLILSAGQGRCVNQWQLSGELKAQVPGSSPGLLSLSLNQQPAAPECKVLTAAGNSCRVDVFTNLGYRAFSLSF

cysteines in MDA-MB-231 and Ramos cells (Homo sapiens, UniProt Q9BRJ7), sequence (Q9BRJ7 whole entry): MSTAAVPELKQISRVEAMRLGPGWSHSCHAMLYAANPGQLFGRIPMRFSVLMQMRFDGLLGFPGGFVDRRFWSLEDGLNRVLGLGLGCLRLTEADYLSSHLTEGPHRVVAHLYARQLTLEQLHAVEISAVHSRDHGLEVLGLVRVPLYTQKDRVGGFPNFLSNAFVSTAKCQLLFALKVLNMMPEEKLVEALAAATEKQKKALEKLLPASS
cysteines in MDA-MB-231 and Ramos cells (Homo sapiens, UniProt Q9Y6G9), sequence (Q9Y6G9 whole entry): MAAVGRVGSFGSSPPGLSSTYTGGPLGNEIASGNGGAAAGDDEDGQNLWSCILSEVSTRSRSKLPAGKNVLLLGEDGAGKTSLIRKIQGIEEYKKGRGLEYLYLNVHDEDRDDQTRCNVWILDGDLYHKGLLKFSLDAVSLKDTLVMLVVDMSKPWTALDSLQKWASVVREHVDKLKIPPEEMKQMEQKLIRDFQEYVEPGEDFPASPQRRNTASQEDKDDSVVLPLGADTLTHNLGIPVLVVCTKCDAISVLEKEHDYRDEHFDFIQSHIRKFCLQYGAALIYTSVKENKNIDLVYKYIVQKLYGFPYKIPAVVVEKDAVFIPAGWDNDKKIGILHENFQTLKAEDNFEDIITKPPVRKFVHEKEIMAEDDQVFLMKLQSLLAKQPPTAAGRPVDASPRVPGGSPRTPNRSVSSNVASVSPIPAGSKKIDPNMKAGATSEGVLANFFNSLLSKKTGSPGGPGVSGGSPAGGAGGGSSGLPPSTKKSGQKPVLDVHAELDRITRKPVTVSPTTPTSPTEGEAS
cysteines in MDA-MB-231 and Ramos cells (Homo sapiens, UniProt O60825), sequence (O60825 whole entry): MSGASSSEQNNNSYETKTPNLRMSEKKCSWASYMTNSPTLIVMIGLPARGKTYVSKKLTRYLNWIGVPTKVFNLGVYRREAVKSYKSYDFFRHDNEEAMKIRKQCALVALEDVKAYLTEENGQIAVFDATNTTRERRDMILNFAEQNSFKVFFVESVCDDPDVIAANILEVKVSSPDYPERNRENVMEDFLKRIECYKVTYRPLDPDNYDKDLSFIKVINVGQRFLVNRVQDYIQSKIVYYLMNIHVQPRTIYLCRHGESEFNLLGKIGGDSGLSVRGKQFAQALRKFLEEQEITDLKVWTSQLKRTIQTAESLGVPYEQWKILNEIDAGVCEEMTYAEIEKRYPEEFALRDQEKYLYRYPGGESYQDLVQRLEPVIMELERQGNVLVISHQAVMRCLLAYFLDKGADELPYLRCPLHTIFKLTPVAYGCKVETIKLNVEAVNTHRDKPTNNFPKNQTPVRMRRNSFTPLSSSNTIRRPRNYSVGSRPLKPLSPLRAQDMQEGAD
cysteines in MDA-MB-231 and Ramos cells (Homo sapiens, UniProt P14635), sequence (P14635 whole entry): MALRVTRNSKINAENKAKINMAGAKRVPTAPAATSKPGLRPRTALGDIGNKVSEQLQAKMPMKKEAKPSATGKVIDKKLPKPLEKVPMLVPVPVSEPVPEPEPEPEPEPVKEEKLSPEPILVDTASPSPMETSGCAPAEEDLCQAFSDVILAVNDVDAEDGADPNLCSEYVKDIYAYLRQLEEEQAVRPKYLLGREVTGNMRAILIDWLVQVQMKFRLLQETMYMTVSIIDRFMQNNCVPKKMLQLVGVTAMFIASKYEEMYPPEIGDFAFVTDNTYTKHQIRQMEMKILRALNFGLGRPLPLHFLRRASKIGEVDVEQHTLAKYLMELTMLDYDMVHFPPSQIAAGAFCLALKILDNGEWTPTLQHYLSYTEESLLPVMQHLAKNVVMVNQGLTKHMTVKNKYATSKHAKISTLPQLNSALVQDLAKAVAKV

COc1ccc2c(c1)CCCN2C(=O)CCl [compound 2]
isoTOP-ABPP reactivity Q6ICB0_C108 DESII ([1]; 200 μM, insitu, 231): 20.0 | isoTOP-ABPP reactivity O60825_C158 PFKFB2 [2]; 231: 0.7 | isoTOP-ABPP reactivity Q96P48_C900 ARAP1 [3]; 231: 5.5 | isoTOP-ABPP reactivity Q9BRJ7_C88 NUDT16L1 ([4]; 200 μM, insitu, 231): 20.0

COc1ccc(C2CC(c3cccs3)=NN2C(=O)CCl)cc1 (stereo not shown) [compound 4]
isoTOP-ABPP reactivity Q9Y6G9_C51 DYNC1LI1 ([5]; 100 μM in situ 231): 3.5 | isoTOP-ABPP reactivity Q9BRJ7_C88 NUDT16L1 ([4]; 100 μM in situ 231): 20.0

COc1cc2c(cc1OC)CN(C(=O)CCl)CC2 [compound 8]
isoTOP-ABPP reactivity P09110_C381 ACAA1 ([6]; 200 μM, insitu, 231): 0.8 | isoTOP-ABPP reactivity Q6ICB0_C108 DESII ([1]; 200 μM, insitu, 231): 20.0 | isoTOP-ABPP reactivity Q9Y6G9_C51 DYNC1LI1 ([5]; 200 μM, insitu, 231): 4.1

O=C(CCl)N1CCC(Cc2ccccc2)CC1 [compound 9]
isoTOP-ABPP reactivity P14635_C238 CCNB1 ([7]; 200 μM, insitu, 231): 3.7 | isoTOP-ABPP reactivity Q86W42_C35 THOC6 ([8]; 200 μM, insitu, 231): 20.0

O=C(CCl)N1CCN(S(=O)(=O)c2ccccc2F)CC1 [compound 10]
isoTOP-ABPP ratio, cysteine P14635_C238 ([7]; 200 μM, insitu, 231): 6.7 | isoTOP-ABPP ratio Q9Y6G9_C51 ([5]; 200 μM, insitu, 231): 4.9 | isoTOP-ABPP ratio O60825_C158 [2]; 231: 0.7 | isoTOP-ABPP ratio O60825_C158 ([2]; ramos): 1.2 | isoTOP-ABPP ratio, cysteine Q96P48_C900 [3]; 231: 1.8 | isoTOP-ABPP ratio, cysteine Q9BRJ7_C88 ([4]; 200 μM, insitu, 231): 20.0

Cn1cc(S(=O)(=O)N2CCOCC2)cc1C(=O)NC(=O)CCl [compound 11]
isoTOP-ABPP ratio, cysteine P09110_C381 ([6]; 100 μM in situ 231): 0.8 | isoTOP-ABPP ratio Q6ICB0_C108 ([1]; 100 μM in situ 231): 0.7 | isoTOP-ABPP ratio, cysteine P14635_C238 ([7]; 100 μM in situ 231): 0.7 | isoTOP-ABPP ratio Q86W42_C35 ([8]; 100 μM in situ 231): 1.3

O=C(CCl)NC(=O)NC12CC3CC(CC(C3)C1)C2 [compound 12]
isoTOP-ABPP ratio, cysteine P09110_C381 ([6]; 200 μM, insitu, 231): 4.5 | isoTOP-ABPP ratio Q9Y6G9_C51 ([5]; 200 μM, insitu, 231): 6.5 | isoTOP-ABPP ratio O60825_C158 [2]; 231: 0.8 | isoTOP-ABPP ratio, cysteine Q96P48_C900 [3]; 231: 1.9

O=C(CCl)NCCc1c[nH]c2ccccc12 [compound 13]
isoTOP-ABPP ratio Q6ICB0_C108 ([1]; 200 μM, insitu, ramos): 4.0 | isoTOP-ABPP ratio, cysteine P14635_C238 ([7]; 200 μM, insitu, 231): 1.3 | isoTOP-ABPP ratio, cysteine P14635_C238 ([7]; 200 μM, insitu, ramos): 1.5 | isoTOP-ABPP ratio Q9Y6G9_C51 ([5]; 200 μM, insitu, ramos): 1.5 | isoTOP-ABPP ratio O60825_C158 ([2]; ramos): 0.9 | isoTOP-ABPP ratio, cysteine Q96P48_C900 [3]; 231: 1.2

O=C(CCl)NC12CC3CC(CC(C3)C1)C2 [compound 21]
isoTOP-ABPP ratio Q6ICB0_C108 ([1]; 200 μM, insitu, 231): 0.6 | isoTOP-ABPP ratio Q9Y6G9_C51 ([5]; 200 μM, insitu, 231): 0.6 | isoTOP-ABPP ratio O60825_C158 [2]; 231: 1.4 | isoTOP-ABPP ratio, cysteine Q96P48_C900 [3]; 231: 0.7

CC(C)CCOCCNC(=O)CCl [compound 27]
isoTOP-ABPP ratio Q6ICB0_C108 ([1]; 200 μM, insitu, 231): 1.9 | isoTOP-ABPP ratio Q9Y6G9_C51 ([5]; 200 μM, insitu, 231): 0.6 | isoTOP-ABPP ratio Q86W42_C35 ([8]; 200 μM, insitu, 231): 1.3

COc1ccccc1OCCNC(=O)CCl [compound 28]
isoTOP-ABPP ratio P09110_C381 ([6]; 200 μM, insitu, 231): 0.8 | isoTOP-ABPP ratio Q9Y6G9_C51 ([5]; 200 μM, insitu, 231): 0.7 | isoTOP-ABPP ratio Q86W42_C35 ([8]; 200 μM, insitu, 231): 1.3 | isoTOP-ABPP ratio Q9BRJ7_C88 ([4]; 200 μM, insitu, 231): 1.7

O=C(CCl)N1CCN(CC(=O)N2CCOCC2)CC1 [compound 29]
isoTOP-ABPP ratio Q6ICB0_C108 ([1]; 200 μM, insitu, ramos): 1.0 | isoTOP-ABPP ratio O60825_C158 ([2]; ramos): 0.9 | isoTOP-ABPP ratio Q96P48_C900 ([3]; ramos): 1.1

C=CC(=O)N(Cc1cccnc1)c1cc(C(F)(F)F)cc(C(F)(F)F)c1 [compound 31]
isoTOP-ABPP ratio P09110_C381 ([6]; 200 μM, insitu, 231): 0.7 | isoTOP-ABPP ratio Q6ICB0_C108 ([1]; 200 μM, insitu, 231): 1.2 | isoTOP-ABPP ratio Q6ICB0_C108 ([1]; 200 μM, insitu, ramos): 1.3 | isoTOP-ABPP ratio Q9Y6G9_C51 ([5]; 200 μM, insitu, ramos): 1.6 | isoTOP-ABPP ratio O60825_C158 ([2]; ramos): 1,3 | isoTOP-ABPP ratio Q96P48_C900 [3]; 231: 1.1 | isoTOP-ABPP ratio Q86W42_C35 ([8]; 200 μM, insitu, 231): 0.5 | isoTOP-ABPP ratio Q9BRJ7_C88 ([4]; 200 μM, insitu, 231): 2.9

C=CC(=O)Nc1cc(F)c(N2CCN(C(=O)OC(C)(C)C)CC2)c(F)c1 [compound 38]
isoTOP-ABPP ratio P09110_C381 ([6]; 200 μM, insitu, 231): 0.8 | isoTOP-ABPP ratio Q6ICB0_C108 ([1]; 200 μM, insitu, 231): 1.1 | isoTOP-ABPP ratio P14635_C238 ([7]; 200 μM, insitu, 231): 1.8 | isoTOP-ABPP ratio Q86W42_C35 ([8]; 200 μM, insitu, 231): 0.8 | isoTOP-ABPP ratio Q9BRJ7_C88 ([4]; 200 μM, insitu, 231): 0.4

Cc1ccc(C=C(C#N)C(=O)NCCN2CCOCC2)cc1 [compound 41]
isoTOP-ABPP ratio P09110_C381 ([6]; 200 μM, insitu, 231): 0.9 | isoTOP-ABPP ratio P14635_C238 ([7]; 200 μM, insitu, 231): 0.5 | isoTOP-ABPP ratio Q9Y6G9_C51 ([5]; 200 μM, insitu, 231): 0.7 | isoTOP-ABPP ratio O60825_C158 [2]; 231: 0.7 | isoTOP-ABPP ratio Q96P48_C900 [3]; 231: 0.5 | isoTOP-ABPP ratio Q86W42_C35 ([8]; 200 μM, insitu, 231): 1.1

CC1CCc2ccccc2N1C(=O)CCl (stereo not shown) [compound 45]
isoTOP-ABPP ratio P09110_C381 ([6]; 200 μM, insitu, 231): 1.2 | isoTOP-ABPP ratio Q6ICB0_C108 ([1]; 200 μM, insitu, 231): 3.1 | isoTOP-ABPP ratio O60825_C158 [2]; 231: 1.3 | isoTOP-ABPP ratio Q86W42_C35 ([8]; 200 μM, insitu, 231): 20.0 | isoTOP-ABPP ratio Q9BRJ7_C88 ([4]; 200 μM, insitu, 231): 1.6

O=C(CCl)Nc1cccc2ncccc12 [compound 51]
isoTOP-ABPP ratio Q6ICB0_C108 ([1]; 200 μM, insitu, 231): 1.1 | isoTOP-ABPP ratio O60825_C158 [2]; 231: 0.9 | isoTOP-ABPP ratio Q86W42_C35 ([8]; 200 μM, insitu, 231): 1.4 | isoTOP-ABPP ratio Q9BRJ7_C88 ([4]; 200 μM, insitu, 231): 1.0
